Assay results published in US20180298405A1, “METHODS AND COMPOSITIONS TO INCREASE HUMAN SOMATIC CELL NUCLEAR TRANSFER (SCNT) EFFICIENCY BY REMOVING HISTONE H3-LYSINE TRIMETHYLATION, AND DERIVATION OF HUMAN NT-ESC” (CHILDREN'S MEDICAL CENTER CORPORATION, priority 2015, published 2018).

Tested on: reprogramming resistant regions (RRRs) / ZGA genes
Assay: RNA-seq of late 8-cell human SCNT embryos with or without KDM4A mRNA injection (ZGA of RRRs, KDM4A-responsive genes)
Assay type: cell-based
Conditions: KDM4A SCNT 8-cell embryos
From the text: A sliding window (size 20 kb, step size 10 kb) was used to assess the genome-wide expression level of 4-cell and 8-cell human embryos. For each window, the expression level was quantified with normalized RPM (reads per millions of uniquely mapped reads). […] These activated regions were classed into three groups based on their expression differences in human SCNT and IVF 8-cell embryos.
The SCNT embryos used for ZGA analysis were generated using oocytes donated by a single healthy person (#64) and dermal fibroblast cells from an AMD patient (DFB-8). SCNT and IVF embryos were cultured up to late 8-cell stage, when the compaction of blastomeres is initiated, then they were treated briefly with acid Tyrode solution to remove zona pellucida. To prepare for the 8-cell SCNT embryo, oocytes from a single oocyte donor, and skin fibroblast cells from a single somatic nuclear donor were used. All the procedures are the same as described in the “Human SCNT procedure and KMD4A mRNA injection” section. Only embryos that reached the late 8-cell stage synchronically 74 hours post activation were collected and used for this experiment.
For preparation of the control IVF embryos, several donated early 8-cell stage IVF embryos were thawed and cultured for 5-7 hours to allow them to reach late 8-cell stage before being processed. After removal of the zona pellucida, the denuded embryos were washed 3 times in PBS, loaded into RNAse and DNAse free PCR tubes, spin downed, and snap frozen in liquid nitrogen. Then, they were kept at −80° C. until use. As controls, dermal fibroblast cells of somatic nuclear donors were also prepared. Those fibroblast cells were cultured in a 25 cm^2 flask in DMEM 10% FBS, and approximately 10,000 cells/donor were collected, snap frozen, and stored at −80° C. until use.
Five 8-cell embryos for each group were directly lysed and used for cDNA synthesis using SMART-Seq v4 Ultra Low Input RNA Kit (Clontech). For MEF donor, 10 ng total RNA was used for cDNA synthesis using SMART-Seq v4 Ultra Low Input RNA Kit. After amplification, the cDNA samples were fragmented using Covaris sonicator M220 to an average size of 150 bp (Covaris). Sequencing libraries were made with the fragmented DNA using NEBNext Ultra DNA Library Prep Kit for Illumina according to manufacturer's instruction (New England Biolabs) with different barcodes. For each RNA-seq analysis of hESCs, 1 μg total RNA was used for mRNA purification. Barcoded RNA-seq libraries were generated using NEBNext Ultra Directional RNA Library Prep Kit for Illumina (New England Biolabs). Single end 50 bp sequencing was performed on a HiSeq 2500 sequencer (Illumina). Sequencing reads were mapped to the human genome (hg19) with Tophat2. All programs were performed with default settings (unless otherwise specified). At least 22 million uniquely mapped reads were obtained for each sequencing library, and subsequently assembled into transcripts guided by the reference annotation (Refseq gene models) with Cufflinks v2.0.2. Expression level of each gene was quantified with normalized FPKM (fragments per kilobase of exon per million mapped fragments). Statistical analyses were performed with R (available at: “www.r-project.org/”). Independent 2 group Wilcoxon rank sum tests were used to compare distributions using the wilcox.test function in R. Pearson's r coefficient was calculated using the cor function with default parameters. The hierarchical clustering analysis of the global gene expression pattern in different samples was carried out using heatmap.2 function (gplots package) in R.

KDM4A mRNA: in vitro transcribed mRNA of full length human KDM4A/JHDM3A cDNA, an H3K9me3 demethylase (SEQ ID NO: 1)
NOC4L Expression level (FPKM): 0.61 FPKM
NOP58 Expression level (FPKM): 55.54 FPKM
NUDT9 Expression level (FPKM): 1.35 FPKM
PAGE5 Expression level (FPKM): 1.86 FPKM
PDCD11 Expression level (FPKM): 1.88 FPKM
PDE4DIP Expression level (FPKM): 4.04 FPKM
PHOSPHO1 Expression level (FPKM): 0.23 FPKM
PIK3R4 Expression level (FPKM): 1.31 FPKM
PLBD1 Expression level (FPKM): 0.74 FPKM
PLD2 Expression level (FPKM): 1 FPKM
PLVAP Expression level (FPKM): 1.63 FPKM
POLR3K Expression level (FPKM): 109.26 FPKM
POTEM Expression level (FPKM): 1.96 FPKM
PPM1N Expression level (FPKM): 0.89 FPKM
PPP2CB Expression level (FPKM): 1.07 FPKM
PRAMEF3 Expression level (FPKM): 1.48 FPKM
PRAMEF4 Expression level (FPKM): 18.29 FPKM
PRAMEF6 Expression level (FPKM): 14.29 FPKM
PRAMEF10 Expression level (FPKM): 49.42 FPKM
PRAMEF11 Expression level (FPKM): 18.18 FPKM
PRAMEF17 Expression level (FPKM): 0.66 FPKM
PRPF39 Expression level (FPKM): 3.48 FPKM
PTPN22 Expression level (FPKM): 1.15 FPKM
RAB9A Expression level (FPKM): 1.37 FPKM
RASA2 Expression level (FPKM): 1 FPKM
RFK Expression level (FPKM): 2.86 FPKM
RNU11 Expression level (FPKM): 3.75 FPKM
RP2 Expression level (FPKM): 1.31 FPKM
RPF2 Expression level (FPKM): 102.42 FPKM
RPS6KB2 Expression level (FPKM): 0.32 FPKM
SAMD8 Expression level (FPKM): 4.34 FPKM
SCO1 Expression level (FPKM): 1.99 FPKM
SEPX1 Expression level (FPKM): 2.34 FPKM
SERTAD1 Expression level (FPKM): 7.03 FPKM
SFTPD Expression level (FPKM): 0.61 FPKM
SGCG Expression level (FPKM): 1.03 FPKM
SGPP1 Expression level (FPKM): 1.39 FPKM
SHFM1 Expression level (FPKM): 21.11 FPKM
SIAH1 Expression level (FPKM): 88.93 FPKM
SNAPC1 Expression level (FPKM): 17.7 FPKM
SNAR-C3 Expression level (FPKM): 98.14 FPKM
SNAR-E Expression level (FPKM): 2468.68 FPKM
SNHG9 Expression level (FPKM): 63.59 FPKM
SNHG12 Expression level (FPKM): 7.02 FPKM
SPINK7 Expression level (FPKM): 12.41 FPKM
SRA1 Expression level (FPKM): 5.51 FPKM
SSX3 Expression level (FPKM): 5.71 FPKM
STAG3L2 Expression level (FPKM): 2.72 FPKM
STAG3L4 Expression level (FPKM): 2.35 FPKM
STAP2 Expression level (FPKM): 0.83 FPKM
SUZ12P Expression level (FPKM): 1.31 FPKM
TAC1 Expression level (FPKM): 5.72 FPKM
TCEANC2 Expression level (FPKM): 2.9 FPKM
TCN2 Expression level (FPKM): 0.69 FPKM
TEN1 Expression level (FPKM): 3.43 FPKM
THOC5 Expression level (FPKM): 5.02 FPKM
TIMM10 Expression level (FPKM): 25.23 FPKM
TMEM41B Expression level (FPKM): 19.19 FPKM
TMEM92 Expression level (FPKM): 0.97 FPKM
TMEM159 Expression level (FPKM): 8.54 FPKM
TRIM39-RPP21 Expression level (FPKM): 1.26 FPKM
TRIML2 Expression level (FPKM): 1.8 FPKM
TSEN34 Expression level (FPKM): 1.75 FPKM
TTC27 Expression level (FPKM): 0.56 FPKM
TTC28-AS1 Expression level (FPKM): 7.79 FPKM
UBTFL1 Expression level (FPKM): 120.09 FPKM
UTP3 Expression level (FPKM): 2.98 FPKM
UTP23 Expression level (FPKM): 3.29 FPKM
UTS2 Expression level (FPKM): 1.14 FPKM
VAMP1 Expression level (FPKM): 13.05 FPKM
VCX2 Expression level (FPKM): 0.24 FPKM
VCX Expression level (FPKM): 0.23 FPKM
VPS54 Expression level (FPKM): 3.79 FPKM
WDR77 Expression level (FPKM): 3.45 FPKM
XAGE5 Expression level (FPKM): 0.11 FPKM
ZCCHC10 Expression level (FPKM): 15.69 FPKM
ZFYVE19 Expression level (FPKM): 4.05 FPKM
ZNF92 Expression level (FPKM): 21.84 FPKM
ZNF100 Expression level (FPKM): 3.76 FPKM
ZNF174 Expression level (FPKM): 1.13 FPKM
ZNF208 Expression level (FPKM): 1.74 FPKM
ZNF254 Expression level (FPKM): 1.32 FPKM
ZNF273 Expression level (FPKM): 4.43 FPKM
ZNF280A Expression level (FPKM): 84.94 FPKM
ZNF326 Expression level (FPKM): 2.8 FPKM
ZNF345 Expression level (FPKM): 1.41 FPKM
ZNF486 Expression level (FPKM): 2.77 FPKM
ZNF487P Expression level (FPKM): 3.02 FPKM
ZNF625-ZNF20 Expression level (FPKM): 1.95 FPKM
ZNF625 Expression level (FPKM): 1 FPKM
ZNF669 Expression level (FPKM): 8.14 FPKM
ZNF675 Expression level (FPKM): 15.04 FPKM
ZNF676 Expression level (FPKM): 4.61 FPKM
ZNF679 Expression level (FPKM): 86.94 FPKM
ZNF680 Expression level (FPKM): 5.58 FPKM
ZNF684 Expression level (FPKM): 7.21 FPKM
ZNF700 Expression level (FPKM): 1.86 FPKM
ZNF724P Expression level (FPKM): 13.16 FPKM
ZNF729 Expression level (FPKM): 0.94 FPKM
ZNF735 Expression level (FPKM): 33.19 FPKM
ZNF789 Expression level (FPKM): 5.2 FPKM
ZNF791 Expression level (FPKM): 3.79 FPKM
ZNF826P Expression level (FPKM): 2.07 FPKM
ZNHIT6 Expression level (FPKM): 3.88 FPKM
